According to PubChem BioAssay (NCI):
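Five concentrations, 48 hours, 96-well plates. TGI is the concentration that stops growth completely.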

Experiments:
Test in all cases: NCI tumour cell line growth inhibition, 48 h
[1] = tested on: NCI-H23 lung
[2] = tested on: OVCAR-8 ovarian
[3] = tested on: SNB-19 CNS
[4] = tested on: MDA-MB-231 breast
[5] = tested on: DU-145 prostate
[6] = tested on: UO-31 renal
[7] = tested on: OVCAR-3 ovarian
[8] = tested on: RPMI-8226 leukemia
[9] = tested on: EKVX NSCLC
[10] = tested on: SF-295 CNS
[11] = tested on: A549 NSCLC
[12] = tested on: MALME-3M melanoma
[13] = tested on: SK-MEL-5 melanoma
[14] = tested on: IGROV1 ovarian
[15] = tested on: T-47D breast
[16] = tested on: U251 CNS
[17] = tested on: SN12C renal
[18] = tested on: TK-10 renal
[19] = tested on: SK-OV-3 ovarian
[20] = tested on: UACC-62 melanoma
[21] = tested on: SW-620 colon
[22] = tested on: MDA-MB-435
[23] = tested on: K-562 leukemia
[24] = tested on: MDA-N
[25] = tested on: SF-268 CNS
[26] = tested on: LOX IMVI melanoma
[27] = tested on: RXF 393 renal
[28] = tested on: HCC-2998 colon
[29] = tested on: ACHN renal
[30] = tested on: MOLT-4 leukemia
[31] = tested on: HOP-62 NSCLC
[32] = tested on: NCI-H460 lung
[33] = tested on: A498 renal
[34] = tested on: NCI/ADR-RES ovarian
[35] = tested on: KM12 colon
[36] = tested on: HCT-116 colon
[37] = tested on: CAKI-1 renal
[38] = tested on: NCI-H226 lung
[39] = tested on: 786-0 renal
[40] = tested on: HCT-15 colon
[41] = tested on: MCF7 breast
[42] = tested on: BT-549 breast
[43] = tested on: SF-539 CNS
[44] = tested on: OVCAR-5 ovarian
[45] = tested on: UACC-257 melanoma
[46] = tested on: CCRF-CEM leukemia
[47] = tested on: HL-60(TB) leukemia
[48] = tested on: OVCAR-4 ovarian
[49] = tested on: SNB-75 CNS
[50] = tested on: COLO 205 colon
[51] = tested on: SK-MEL-28 melanoma
[52] = tested on: HOP-92 NSCLC
[53] = tested on: HT29 colon
[54] = tested on: HS 578T breast
[55] = tested on: PC-3 prostate
[56] = tested on: SR leukemia
[57] = tested on: SK-MEL-2 melanoma
[58] = tested on: M14 melanoma

O=c1c2n[nH]nc2nc2n1CC(c1ccccc1)S2 (stereo not drawn)
TGI [1]: > 100 µM | TGI [2]: > 100 µM | TGI [3]: > 100 µM | TGI [4]: > 100 µM | TGI [5]: > 100 µM | TGI [6]: > 100 µM | TGI [7]: > 100 µM | TGI [8]: > 100 µM | TGI [9]: > 100 µM | TGI [10]: > 100 µM | TGI [11]: > 100 µM | TGI [12]: > 100 µM | TGI [13]: > 100 µM | TGI [14]: > 100 µM | TGI [15]: > 100 µM | TGI [16]: > 100 µM | TGI [17]: > 100 µM | TGI [18]: > 100 µM | TGI [19]: > 100 µM | TGI [20]: > 100 µM | TGI [21]: > 100 µM | TGI [22]: > 100 µM | TGI [23]: > 100 µM | TGI [24]: > 100 µM | TGI [25]: > 100 µM | TGI [26]: > 100 µM | TGI [27]: 94.9 µM | TGI [28]: > 100 µM | TGI [29]: > 100 µM | TGI [30]: > 100 µM | TGI [31]: > 100 µM | TGI [32]: > 100 µM | TGI [33]: > 100 µM | TGI [34]: > 100 µM | TGI [35]: > 100 µM | TGI [36]: > 100 µM | TGI [37]: 77.6 µM | TGI [38]: > 100 µM | TGI [39]: > 100 µM | TGI [40]: > 100 µM | TGI [41]: > 100 µM | TGI [42]: > 100 µM | TGI [43]: > 100 µM | TGI [44]: > 100 µM | TGI [45]: > 100 µM | TGI [46]: > 100 µM | TGI [47]: > 100 µM | TGI [48]: > 100 µM | TGI [49]: > 100 µM | TGI [50]: > 100 µM | TGI [51]: > 100 µM

Cc1cccc(C)c1N1C(=O)C2c3[nH]c4ccccc4c3C3CCC(C(C)(C)C)CC3C2C1=O (stereo not drawn)
TGI [1]: 39.8 µM | TGI [2]: 37 µM | TGI [52]: 23.9 µM | TGI [53]: 32 µM | TGI [3]: > 100 µM | TGI [4]: 24.4 µM | TGI [5]: 22.5 µM | TGI [6]: 26 µM | TGI [54]: 44 µM | TGI [7]: 30.3 µM | TGI [55]: 20.6 µM | TGI [8]: > 100 µM | TGI [9]: 23.4 µM | TGI [10]: 51.9 µM | TGI [11]: > 100 µM | TGI [12]: 28.2 µM | TGI [56]: > 100 µM | TGI [13]: 28.6 µM | TGI [14]: 42.6 µM | TGI [16]: 36.6 µM | TGI [17]: 21.8 µM | TGI [18]: 33.8 µM | TGI [19]: > 100 µM | TGI [20]: 36.2 µM | TGI [21]: 21 µM | TGI [57]: 33.7 µM | TGI [22]: > 100 µM | TGI [58]: 32 µM | TGI [23]: 32.7 µM | TGI [24]: 24.4 µM | TGI [25]: 39 µM | TGI [26]: 23.6 µM | TGI [27]: 26.3 µM | TGI [28]: 14.9 µM | TGI [29]: 33.7 µM | TGI [30]: > 100 µM | TGI [31]: 13.7 µM | TGI [33]: 37.6 µM | TGI [34]: 48.8 µM | TGI [36]: 21.3 µM | TGI [37]: 26.8 µM | TGI [38]: 41 µM | TGI [39]: 20.8 µM | TGI [40]: 24.2 µM | TGI [42]: 38.2 µM | TGI [43]: 37.5 µM | TGI [44]: 55.9 µM | TGI [45]: 37.5 µM | TGI [46]: 45.1 µM | TGI [47]: 35.5 µM | TGI [50]: 24 µM | TGI [51]: 45.5 µM
